Laboratory results reported in patent US20090082398A1 (Teva Pharmaceutical Industries Ltd., priority 2004, published 2009).
Where a name gives a salt, the structure may show the parent alone.

Assays:
Type in all cases: physicochemical
[1] = Exposure in controlled humidity cells, 7 days at room temperature, tested by XRD and KF titration; parameters: Water content: unit not given here; settings: for Water content: KF titration
Description: 200 mg of Fexofenadine HCl Form XVI was spread as a thin layer on an open dish, and then put in controlled humidity cells of 0, 20, 40, 60 and 80% RH for 7 days at room temperature. The samples were tested by XRD and by KF titration.

[2] = Heating under atmospheric pressure, then tested by XRD; settings: 10 h
[3] = Exposure of Form XX in controlled humidity cells, 9 days at 30 C, tested by XRD
[4] = Microscope observation of particle morphology; settings: hydrochloride
Source text: The morphology of an active pharmaceutical substance plays an important role in drug performance, and has a profound impact on handling during milling processes and during drug product manufacturing. […].

Row | SMILES | Water content ([1]; 0% RH) | Crystal Form content by XRD ([1]; 0% RH, hydrochloride) | Water content ([1]; 20% RH) | Crystal Form content by XRD ([1]; 20% RH, hydrochloride) | Water content ([1]; 40% RH) | Crystal Form content by XRD ([1]; 40% RH, hydrochloride) | Water content ([1]; 60% RH) | Crystal Form content by XRD ([1]; 60% RH, hydrochloride) | Crystal Form content by XRD ([1]; 80% RH) | Water content ([1]; 80% RH) | further results
1 | CC(C)(C(=O)O)c1ccc(C(O)CCCN2CCC(C(O)(c3ccccc3)c3ccccc3)CC2)cc1 (centres unmarked) [Fexofenadine HCl Form XVI, fexofenadine hydrochloride] | 4.2 | mixture of Fexofenadine HCl Form XVI and Fexofenadine HCl Form XX | 7.0 | XVI | 7.3 | XVI | 7.3 | XVI | XVI | 8.3 | Resulted Form ([2]; 65 C.): XVI; Resulted Form ([2]; 80 C.): XVI + Amorphous; Resulted Form ([2]; 100 C., hydrochloride): mixture of Fexofenadine HCl Form XVI and amorphous Form; Resulted Form ([2]; 100 C., listed as XVI, hydrochloride): XVI + Amorphous
2 | CC(C)(C(=O)O)c1ccc(C(O)CCCN2CCC(C(O)(c3ccccc3)c3ccccc3)CC2)cc1 (centres unmarked) [Fexofenadine HCl Form XX, fexofenadine hydrochloride] |  |  |  |  |  |  |  |  |  |  | Crystal Form content by XRD ([3]; 40% RH): XVI + XX; Water content ([3]; 40% RH): 4.9; Crystal Form content by XRD ([3]; 60% RH): XVI + XX; Water content ([3]; 60% RH): 5.2; Crystal Form content by XRD ([3]; 80% RH): XVI; Water content ([3]; 80% RH): 7.8; Particle morphology ([4]; listed as fexofenadine HCl form XX): small rod shape particles
3 | CC(C)(C(=O)O)c1ccc(C(O)CCCN2CCC(C(O)(c3ccccc3)c3ccccc3)CC2)cc1 (centres unmarked) [Fexofenadine HCl form I, fexofenadine hydrochloride, reference compound] |  |  |  |  |  |  |  |  |  |  | Particle morphology ([4]; listed as fexofenadine HCl form I): needles morphology
4 | CC(C)(C(=O)O)c1ccc(C(O)CCCN2CCC(C(O)(c3ccccc3)c3ccccc3)CC2)cc1 (centres unmarked) [mixture of Fexofenadine HCl Form XVI and Fexofenadine HCl Fo] [fexofenadine hydrochloride] | 4.2 | 85% XVI, 15% Form XX | 7.0 | 93% XVI, 7% Form XX | 7.3 | 96% XVI, 4% Form XX | 7.3 | 96% XVI, 4% Form XX | XVI | 8.3 | 
